Where two headings read alike, the source gives them in different places.
What was measured:
[1] = test system: chain of tracheal rings of guinea pigs; assay: relaxing action on chain of tracheal rings in vitro (bronchospasmolytic action); design: species or system guinea pig; details: for EC50: Cavia porcellus, Column A, negative logarithm of EC50 in mol/l, 50% of maximum relaxation by (-)isoprenaline, read-out: -lg[EC50] trachea (converted); for [EC40 pot.] left atrium / [EC50] trachea: Column C, measure of organ-selective activity; for [EC50] theophylline / [EC50] substance: Column D, trachea
Experimental: The relaxing action of the 6-aryl-3[2H]pyridazinones I has been tested in vitro on a chain of tracheal rings (Tr.) of guinea pigs. […] The quotient of [EC40pot. ]left atrium and [ED50 ]trachea serves as a measure of the organ-selective activity.
The bronchospasmolytic action of the compounds on the chain of tracheal rings of the guinea pig was tested in vitro:
Four parallel chains of tracheal rings, each consisting of 6 individual rings, of guinea pigs(.male. and .female., 430-600 g) in an organ bath [5 ml, Krebs-Henseleit solution with added phentolamine (10^-5 mol/l), 37° C., initial tension of the organs 2 g, gassing with carbogen] develop a stable, spontaneous tonic contraction after about 20 to 30 minutes. […] Over a period of 20 to 30 minutes, a complete dose/action curve of the test substance is thus obtained. The particular relaxation is expressed as a percentage fraction of the maximum relaxation which can be achieved by administration of (-)isoprenaline (10^-6 mol/1). The concentration of the test substance which causes 50% of the maximum relaxation which can be achieved, expressed by the negative logarithm of the EC50 mol/l: -lg[EC50 ]is a measure of the bronchodilator activity.

[2] = test system: electrically stimulated left atrium of rats; assay: positive inotropic action on electrically stimulated left atrium in vitro; design: species or system rat; details: for EC40: Rattus norvegicus, Column B, negative logarithm of EC40pot in mol/l, 40% increase in contraction force, read-out: -lg[EC40 pot.] left atrium (converted); for [EC40 pot.] theophylline / [EC40 pot.] substance: Column E, left atrium
Experimental: The positive inotropic action was tested in vitro on the electrically stimulated left atrium of rats (l.a.).
The positive inotropic action of the compounds was tested in vitro on the electrically stimulated left atrium of rats.
Isometric contractions (HSE force sensor K-30; Watanabe recorder, Linear Corder Mark 5) of isolated, left atria from rats (.male., 250-300 g) in an organ bath (10 ml, Tyrode nutrient solution, 31° C., gassing with carbogen, initial tension of the organs 0.25 g) under electrical stimulation (HSE stimulator, 7 V, 3 ms, 2 Hz) were recorded. […] The particular increase in the contraction force is expressed in % of the starting value before administration of the substance. The concentration of the test substance which potentiates the contraction force of the atrium by 40% compared with the starting value [EC40pot. mol/l], expressed by the negative logarithm of the [EC40pot mol/l]: -lg[EC40pot ] serves as a measure of the cardiotonic activity.

[3] = toxicity studies, mouse p.o.; details: in vivo, po; for LD50 at 168 h: Column F, mouse p.o., 7 days observation, read-out: Approximate LD50; for tolerated dose: mouse, 10080 min
Experimental: The toxicity studies are carried out on female NMRI mice (body weight 23-30 g). The animals (5 animals per dose) receive food and water ad libitum. Various doses of the substances are administered once as a suspension in methocel via a gavage. The period of observation lasts 7 days. The tolerated dose (TD), that is to say the highest dose at which as yet none of the animals die, is determined by observation. The average lethal dose (LD50), that is to say the dose at which 50% of the animals die, is determined from the dose/action curve by means of linear regression.

[4] = test system: histamine-induced bronchospasm; assay: inhibition of histamine-induced bronchospasm in anesthetized guinea pigs; format: in vivo, guinea pig; details: for inhibition of histamine-induced bronchospasm, TVi / inhibition of histamine-induced bronchospasm, Vmaxe / inhibition of histamine-induced bronchospasm, Vmaxi: 20 μmol/kg i.v.
Experimental: A method for simultaneously recording pharmacodynamic and toxic effects on internal sensitive receptors, on the respiration and the cardiovascular system of guinea pigs was used [U. Kilian, E. Muller, E. Ch. […] To characterize the bronchospasm induced by histamine (0.09-0.18 μmol /kg i.v.), the maximum flow rate of the respiratory air during inspiration (Vmaxi) and expiration (Vmaxe) and the breath volume (BVi) were measured. A histamine spasm before administration of the substance was compared with several histamine spasms after administration of the substance. The test substances were administered intravenously (i.v.) and/or intrajejunally (i.j.). 5 to 10 animals were used per measurement, and the arithmetic mean was calculated from the results.

[5] = test system: guinea pig hearts isolated and perfused by the Langendorff method; assay: left-ventricular pressure and heart rate in isolated perfused Langendorff hearts; details: for Emax: Cavia porcellus; for EC20 left-ventricular pressure: dose which leads to a 20% increase in left ventricular pressure
Description: After the animals have been sacrificed by a blow to the neck and exsanguination through the carotid arteries, the thoracic cavity is opened, and the aorta is exposed and looped up with a thread. A cannula, which is attached by tubing to the apparatus from which the nutrient solution slowly drops, is introduced in the direction of the heart and the heart is, quickly after removal from the thorax, connected to the perfusion apparatus. A balloon probe, connected to a Statham pressure sensor, is advanced through a cut through the left atrium into the left ventricle, and is provided with an initial pressure of 40 mm Hg. […] The nutrient solution flowing freely from the coronary sinus into the right atrium is measured with a flow […]) and, together with the change in the left-ventricular pressure and the heart rate determined from this, is recorded on a Watanabe recorder. The substances are administered in a volume of 0.1 ml of nutrient solution, in the dosage indicated in Tab.

[6] = test system: acetylcholine-induced bronchospasm; assay: protective effect against acetylcholine-induced bronchospasm in conscious guinea pigs; format: in vivo, guinea pig; details: for Doubling of the latency period / Tripling of the latency period: 30 min; for Tripling of the latency period: figure in parentheses
Experimental: The figure in parentheses indicates the number out of 10 animals in which the latency period more than tripled.
The latency period is to be understood to be the time from the start of acetylcholine-atomization until clear signs of asthma appeared.
The time from the start of atomization to the onset of clear respiratory exertion (in certain circumstances, hypoxic convulsion in the lateral position) is measured, and is denoted the latency period.
The test substance is administered orally by gavage (standard dose 100 μmol/kg, volume 1 ml of 4% strength methocel suspension in 0.9% strength sodium chloride solution/kg). […] Prolongation of the latency period to at least twice its length is regarded as a protective effect.

[7] = test system: right ventricle of guinea pigs; assay: heart function dP/dtmax, right ventricle of anesthetized guinea pigs; format: in vivo, guinea pig
Experimental: The effect of the substances on the contractility of the heart of guinea pigs is tested on animals (.male., 400 to 1000 g) under urethane anesthesia. The change in pressure in the right ventricle of the heart is measured with a tip catheter introduced through the right jugular vein and the maximum rate of pressure rise (dP/dtmax) is determined from this. The heart rate is derived from the pressure waves. […] The test substances were administered intravenously. 5-7 animals were used for each measurement, and the arithmetic mean was calculated from the results.

[8] = after 500 nMol, read-out: Emax left-ventricular pressure
[9] = at Emax, 500 nMol, read-out: Percentage increase in heart rate at Emax

In the case of `COc1ccc(-c2ccc(=O)[nH]n2)cc1OC(C)C` [Serial No. 11, 6-(4-methoxy-3-isopropoxyphenyl)-3[2H]pyridazinone], the EC50 [1] is reported as 0.0977 µM, the “[EC40 pot.] left atrium / [EC50] trachea” value [1] is reported as 10000 and the “[EC50] theophylline / [EC50] substance” value [1] is reported as 1370. For the same compound, the EC40 [2] was greater than 1000 µM, the LD50 at 168 h [3] was 600 mg/kg and the “inhibition of histamine-induced bronchospasm, TVi” value (“inhibition … TVi” below) ([4]; 2 min) was 117%. The “inhibition of histamine-induced bronchospasm, Vmaxe” value (from here on “inhibition … Vmaxe”) ([4]; 2 min) was 123%, the “inhibition of histamine-induced bronchospasm, Vmaxi” value (“inhibition … Vmaxi” for short) ([4]; 2 min) was 152% and the “inhibition … TVi” value ([4]; 10 min) was 84%. For the same compound, the “inhibition … Vmaxe” value ([4]; 10 min) was 109%, the “inhibition … Vmaxi” value ([4]; 10 min) was 113% and the “inhibition … TVi” value ([4]; 20 min) was 54%. The “inhibition … Vmaxe” value ([4]; 20 min) was 63%, the “inhibition … Vmaxi” value ([4]; 20 min) was 89% and the “inhibition … TVi” value ([4]; 30 min) was 38%. The “inhibition … Vmaxe” value ([4]; 30 min) was 43%, the “inhibition … Vmaxi” value ([4]; 30 min) was 47% and the “inhibition … TVi” value ([4]; 60 min) was 5%. For the same compound, the “inhibition … Vmaxe” value ([4]; 60 min) was 6%, the “inhibition … Vmaxi” value ([4]; 60 min) was 9% and the “inhibition of histamine-induced bronchospasm compared with theophylline” value ([4]; result in words) was “significantly more effective than theophylline”.
In the case of `C=CCOc1cc(-c2ccc(=O)[nH]n2)ccc1OC` [compound 9], the EC50 [1] is reported as 0.537 µM, the “[EC40 pot.] left atrium / [EC50] trachea” value [1] is reported as 2.3 and the “[EC50] theophylline / [EC50] substance” value [1] is reported as 251. The “[EC40 pot.] theophylline / [EC40 pot.] substance” value [2] was 331, the EC40 [2] was 1.26 µM and the LD50 at 168 h [3] was 610 mg/kg. The Emax [5, 8] was 53%, the Emax [5, 9] was 21% and the “Percentage increase in heart rate at EC20” value (“Percentage increase” for short) [5] was 7%. It also gave an EC20 left-ventricular pressure [5] of 50 nmol.
With `COc1ccc(-c2ccc(=O)[nH]n2)cc1` [compound 19] the EC50 [1] was 8.91 µM, the “[EC40 pot.] left atrium / [EC50] trachea” value [1] was 19.1 and the “[EC50] theophylline / [EC50] substance” value [1] was 15.1. For the same compound, the “[EC40 pot.] theophylline / [EC40 pot.] substance” value [2] was 4.7, the EC40 [2] was 170 µM and the tolerated dose [3] was greater than 400. For the same compound, the Emax ([5]; after 1000 nMol, read-out: Emax left-ventricular pressure) was 45%, the Emax ([5]; at Emax, 1000 nMol, read-out: Percentage increase in heart rate at Emax) was 11% and the “Percentage increase” value [5] was 6%. The EC20 left-ventricular pressure [5] was 160 nmol.
With `COc1cc(-c2ccc(=O)[nH]n2)ccc1OCCC(C)C` [Serial No. 6, 6-[3-methoxy-4-(3-methylbutoxy)-phenyl]-3[2H]pyridazinone] the EC50 [1] was 0.708 µM, the “[EC40 pot.] left atrium / [EC50] trachea” value [1] was 219 and the “[EC50] theophylline / [EC50] substance” value [1] was 190. The “[EC40 pot.] theophylline / [EC40 pot.] substance” value [2] was 4.6, the EC40 [2] was 91.2 µM and the tolerated dose [3] was greater than 800.
Work on `CCCOc1ccc(-c2ccc(=O)[nH]n2)cc1OC` [compound 2] yielded an EC50 [1] of 0.417 µM, an EC40 [2] of 7.24 µM and an LD50 at 168 h [3] of 530 mg/kg. The Emax ([5]; after 300 nMol, read-out: Emax left-ventricular pressure) was 59% and the Emax ([5]; at Emax, 300 nMol, read-out: Percentage increase in heart rate at Emax) was 13%.
In the case of `CCCOc1cc(-c2ccc(=O)[nH]n2)ccc1OC` [Serial No. 10, 6-(4-methoxy-3-n-propoxyphenyl)-3[2H]pyridazinone], the EC50 [1] is reported as 0.468 µM, the “[EC40 pot.] left atrium / [EC50] trachea” value [1] is reported as 1.3 and the “[EC50] theophylline / [EC50] substance” value [1] is reported as 288. The “[EC40 pot.] theophylline / [EC40 pot.] substance” value [2] was 661, the EC40 [2] was 0.631 µM and the LD50 at 168 h [3] was 770 mg/kg. For the same compound, the “Doubling of the latency period” value ([6]; 100 μmol/kg p.o.) was 6 N of 10 animals, the “Tripling of the latency period” value ([6]; 100 μmol/kg p.o.) was 6 N of 10 animals and the “Doubling of the latency period” value ([6]; 300 μmol/kg p.o.) was 10 N of 10 animals. The “Tripling of the latency period” value ([6]; 300 μmol/kg p.o.) was 8 N of 10 animals, the “protective effect compared with theophylline” value ([6]; result in words) was “greater protective effect” and the Emax [5, 8] was 61%. For the same compound, the Emax [5, 9] was 19%, the “Percentage increase” value [5] was 9% and the EC20 left-ventricular pressure [5] was 40 nmol. The “Percentage change in dP/dtmax” value ([7]; 0.3 μmol/kg i.v., 0-10 min (Maximum)) was 42%, the “Percentage change in dP/dtmax” value ([7]; 0.3 μmol/kg i.v., 10 min) was 16% and the “Percentage change in dP/dtmax” value ([7]; 0.3 μmol/kg i.v., 30 min) was 21%. The “Percentage change in dP/dtmax” value ([7]; 1 μmol/kg i.v., 0-10 min (Maximum)) was 97%, the “Percentage change in dP/dtmax” value ([7]; 1 μmol/kg i.v., 10 min) was 45% and the “Percentage change in dP/dtmax” value ([7]; 1 μmol/kg i.v., 30 min) was 46%. For the same compound, the “Percentage change in dP/dtmax” value ([7]; 3 μmol/kg i.v., 0-10 min (Maximum)) was 164%, the “Percentage change in dP/dtmax” value ([7]; 3 μmol/kg i.v., 10 min) was 90% and the “Percentage change in dP/dtmax” value ([7]; 3 μmol/kg i.v., 30 min) was 66%.
With `COc1cc(-c2ccc(=O)[nH]n2)ccc1OC(C)C` [compound 1] the EC50 [1] was 1.91 µM, the EC40 [2] was 22.4 µM and the LD50 at 168 h [3] was 270 mg/kg.
